How the values were obtained:
[1] = target: T1, Recombinant human His6-USP1/His6-UAF1 complex protein (Homo sapiens, UniProt O94782); assay: In vitro inhibitory activity against USP1 (Ubiquitin Rhodamine 110 fluorescence detection, 384-well plate); assay type: biochemical; conditions: Ub-Rho substrate, 1 hour pre-incubation, read after 30 minutes
T1 construct: His6; purchased R&D E-568-050
In short: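 Fluorescence assay measuring inhibition of recombinant human His6-USP1/His6-UAF1 complex with Ubiquitin-Rhodamine 110 substrate. Compounds held as 50 mM stocks in 100% DMSO and dispensed by acoustic transfer into modified Tris assay buffer.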

MDA-MB-436 = assay: CTG experiment for cell viability (CellTiter-Glo, 96-well plate, 7 days); assay type: cell-based; conditions: Homo sapiens, MDA-MB-436, 168 h, MDA-MB-436 cells, 7 days culture with compound
In short: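 MDA-MB-436 cells in DMEM were plated in 96-well format, treated with compounds, and cultured 7 days at 37°C. After removing the medium, cells were given PBS plus CellTiter-Glo reagent, incubated 10 min at room temperature, and luminescence was read. Curves were fitted as for the enzyme assay.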

T1 sequence (O94782 whole entry): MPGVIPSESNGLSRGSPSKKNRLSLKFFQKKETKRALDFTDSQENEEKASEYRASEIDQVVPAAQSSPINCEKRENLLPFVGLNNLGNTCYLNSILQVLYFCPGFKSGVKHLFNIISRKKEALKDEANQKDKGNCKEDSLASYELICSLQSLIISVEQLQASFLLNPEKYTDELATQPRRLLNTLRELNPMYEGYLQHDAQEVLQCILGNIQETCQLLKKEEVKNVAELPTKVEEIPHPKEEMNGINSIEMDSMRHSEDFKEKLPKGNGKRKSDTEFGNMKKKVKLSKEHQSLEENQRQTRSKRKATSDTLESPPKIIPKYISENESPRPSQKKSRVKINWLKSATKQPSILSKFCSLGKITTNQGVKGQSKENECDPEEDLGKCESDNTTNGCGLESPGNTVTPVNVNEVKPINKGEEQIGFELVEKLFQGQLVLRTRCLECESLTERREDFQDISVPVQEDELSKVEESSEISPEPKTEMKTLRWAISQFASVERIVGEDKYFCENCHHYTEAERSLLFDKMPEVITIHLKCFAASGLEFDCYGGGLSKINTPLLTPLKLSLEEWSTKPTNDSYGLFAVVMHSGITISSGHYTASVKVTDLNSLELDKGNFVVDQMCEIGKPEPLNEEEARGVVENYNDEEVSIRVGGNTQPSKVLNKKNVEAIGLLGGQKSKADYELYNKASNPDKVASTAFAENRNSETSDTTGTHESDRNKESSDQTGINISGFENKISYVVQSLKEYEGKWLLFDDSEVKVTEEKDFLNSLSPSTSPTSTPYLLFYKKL
T1 sequence (Q8TAF3 whole entry partner): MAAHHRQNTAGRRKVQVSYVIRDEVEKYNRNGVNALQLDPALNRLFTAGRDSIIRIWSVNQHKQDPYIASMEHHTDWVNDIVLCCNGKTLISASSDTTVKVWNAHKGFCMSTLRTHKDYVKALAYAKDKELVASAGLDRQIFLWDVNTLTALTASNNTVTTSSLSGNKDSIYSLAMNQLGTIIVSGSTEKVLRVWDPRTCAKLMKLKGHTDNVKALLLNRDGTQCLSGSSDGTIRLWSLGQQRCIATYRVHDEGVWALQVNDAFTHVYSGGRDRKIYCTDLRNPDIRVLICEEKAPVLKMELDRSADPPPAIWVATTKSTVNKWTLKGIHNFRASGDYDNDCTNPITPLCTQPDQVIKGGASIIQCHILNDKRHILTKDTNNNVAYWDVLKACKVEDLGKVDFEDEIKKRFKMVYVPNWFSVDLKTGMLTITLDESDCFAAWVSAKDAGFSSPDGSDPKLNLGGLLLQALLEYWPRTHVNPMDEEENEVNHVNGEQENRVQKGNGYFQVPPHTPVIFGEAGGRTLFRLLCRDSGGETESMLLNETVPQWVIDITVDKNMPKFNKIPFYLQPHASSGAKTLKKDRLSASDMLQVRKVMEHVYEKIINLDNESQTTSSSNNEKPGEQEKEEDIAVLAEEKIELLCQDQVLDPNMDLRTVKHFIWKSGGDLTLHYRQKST

| SMILES | IC50 [1] [nM] | IC50 (MDA-MB-436) [nM] |
| --- | --- | --- |
| COc1cnc(-c2cccnc2C2CC2)nc1NCc1ccc(-c2nc(C(F)(F)F)cn2C)cc1 [Example 153, 2-(2-Cyclopropylpyridin-3-yl)-5-methoxy-N-(4-(1-methyl-4-(trifluoromethyl)-1H-imidazol-2-yl)benzyl)pyrimidin-4-amine] | 3.4 | 25.4 |
| COc1cnc(-c2cccnc2C2CC2)nc1NCc1ccc(-n2nc(C(F)(F)F)cc2C)cc1 [Example 154, 2-(2-Cyclopropylpyridin-3-yl)-5-methoxy-N-(4-(5-methyl-3-(trifluoromethyl)-1H-pyrazol-1-yl)benzyl)pyrimidin-4-amine] | 6.2 | 7.3 |
| c1ccc(-c2ccc(CNc3nc(-c4cccnc4C4CC4)nc4ccoc34)cc2)nc1 [Example 155, 2-(2-Cyclopropylpyridin-3-yl)-N-(4-(pyridin-2-yl)benzyl)furo[3,2-d]pyrimidin-4-amine] | 12 | 85.7 |
| COc1cnc(-c2cccnc2C(C)C)nc1NCc1ccc(-c2nc(C(F)(F)F)cn2C)cc1 [Example 157, 2-(2-Isopropylpyridin-3-yl)-5-methoxy-N-(4-(1-methyl-4-(trifluoromethyl)-1H-imidazol-2-yl)benzyl)pyrimidin-4-amine] | 2.9 | 23.3 |
| COc1cnc(-c2cccnc2C(C)C)nc1NCc1ccc(-n2nc(C(F)(F)F)cc2C)cc1 [Example 158, 2-(2-Isopropylpyridin-3-yl)-5-methoxy-N-(4-(5-methyl-3-(trifluoromethyl)-1H-pyrazol-1-yl)benzyl)pyrimidin-4-amine] | 2.1 | 12.3 |
| COc1cnc(-c2ccccc2N(C)C)nc1NCc1ccc(-c2nc(C(F)(F)F)cn2C)cc1 [Example 159, 2-(2-(Dimethylamino)phenyl)-5-methoxy-N-(4-(1-methyl-4-(trifluoromethyl)-1H-imidazol-2-yl)benzyl)pyrimidin-4-amine] | 1.7 | 39.4 |
| COc1cnc(-c2ccccc2N(C)C)nc1NCc1ccc(-n2nc(C(F)(F)F)cc2C)cc1 [Example 160, 2-(2-(Dimethylamino)phenyl)-5-methoxy-N-(4-(5-methyl-3-(trifluoromethyl)-1H-pyrazol-1-yl)benzyl)pyrimidin-4-amine] | 3.6 | 121 |
| COc1cnc(-c2c(Cl)cnn2C(C)C)nc1N(C)CC1CCN(c2ccccn2)CC1 [Example 161, 2-(4-Chloro-1-isopropyl-1H-pyrazol-5-yl)-5-methoxy-N-methyl-N-((1-(pyridin-2-yl)piperidin-4-yl)methyl)pyrimidin-4-amine] | 6 | 537 |
| COc1cnc(-c2c(Cl)cnn2C(C)C)nc1NCc1ccc(-c2ccccn2)cc1 [Example 162, 2-(4-Chloro-1-isopropyl-1H-pyrazol-5-yl)-5-methoxy-N-(4-(pyridin-2-yl)benzyl)pyrimidin-4-amine] | 3.9 | 77.5 |
| COc1cnc(-c2c(Cl)cnn2C(C)C)nc1NCC1CCN(c2nc(C(F)(F)F)cn2C)CC1 [Example 163, 2-(4-Chloro-1-isopropyl-1H-pyrazol-5-yl)-5-methoxy-N-((1-(1-methyl-4-(trifluoromethyl)-1H-imidazol-2-yl)piperidin-4-yl)methyl)pyrimidin-4-amine] | 2.3 | 13.5 |
| COc1cnc(-c2c(Cl)cnn2C(C)C)nc1NCc1ccc(-c2nc(C(F)(F)F)cn2C)cc1 [Example 164, 2-(4-Chloro-1-isopropyl-1H-pyrazol-5-yl)-5-methoxy-N-(4-(1-methyl-4-(trifluoromethyl)-1H-imidazol-2-yl)benzyl)pyrimidin-4-amine] | 1.1 | 0.8 |
| COc1cnc(-c2c(Cl)cnn2C(C)C)nc1NCc1ccc(-n2nc(C(F)(F)F)cc2C)cc1 [Example 165, 2-(4-Chloro-1-isopropyl-1H-pyrazol-5-yl)-5-methoxy-N-(4-(5-methyl-3-(trifluoromethyl)-1H-pyrazol-1-yl)benzyl)pyrimidin-4-amine] | 1.4 | 7.1 |
| CC(C)n1ncc(Cl)c1-c1nc(NCc2ccc(-c3ccccn3)cc2)c2occc2n1 [Example 166, 2-(4-Chloro-1-isopropyl-1H-pyrazol-5-yl)-N-(4-(pyridin-2-yl)benzyl)furo[3,2-d]pyrimidin-4-amine] | 2.1 | 41.4 |
| CC(C)n1ncc(Cl)c1-c1nc(NCc2ccc(-c3nc(C(F)(F)F)cn3C)cc2)c2occc2n1 [Example 167, 2-(4-Chloro-1-isopropyl-1H-pyrazol-5-yl)-N-(4-(1-methyl-4-(trifluoromethyl)-1H-imidazol-2-yl)benzyl)furo[3,2-d]pyrimidin-4-amine] | 0.45 | 2.9 |
| Cc1cc(C(F)(F)F)nn1-c1ccc(CNc2nc(-c3c(Cl)cnn3C(C)C)nc3ccoc23)cc1 [Example 168, 2-(4-Chloro-1-isopropyl-1H-pyrazol-5-yl)-N-(4-(5-methyl-3-(trifluoromethyl)-1H-pyrazol-1-yl)benzyl)furo[3,2-d]pyrimidin-4-amine] | 1.2 | 5.1 |
| COc1cnc(-c2ccccc2C2CC2)nc1NCc1ccc(-c2nc(C(F)(F)F)cn2C)cc1 [Example 169, 2-(2-Cyclopropylphenyl)-5-methoxy-N-(4-(1-methyl-4-(trifluoromethyl)-1H-imidazol-2-yl)benzyl)pyrimidin-4-amine] | 0.8 | 0.4 |
| COc1cnc(-c2ccccc2C2CC2)nc1NCc1ccc(-n2nc(C(F)(F)F)cc2C)cc1 [Example 170, 2-(2-Cyclopropylphenyl)-5-methoxy-N-(4-(5-methyl-3-(trifluoromethyl)-1H-pyrazol-1-yl)benzyl)pyrimidin-4-amine] | 2.9 | 14.5 |
| COc1cc(-c2nc(C(F)(F)F)cn2C)ccc1CNc1nc(-c2ccccc2C2CC2)ncc1OC [Example 171, 2-(2-Cyclopropylphenyl)-5-methoxy-N-(2-methoxy-4-(1-methyl-4-(trifluoromethyl)-1H-imidazol-2-yl)benzyl)pyrimidin-4-amine] | 2.3 | 84.7 |
| COc1cc(CNc2nc(-c3ccccc3C3CC3)ncc2OC)ccc1-c1nc(C(F)(F)F)cn1C [Example 172, 2-(2-Cyclopropylphenyl)-5-methoxy-N-(3-methoxy-4-(1-methyl-4-(trifluoromethyl)-1H-imidazol-2-yl)benzyl)pyrimidin-4-amine] | 12 | 954 |
| Cn1cc(C(F)(F)F)nc1-c1ccc(CNc2nc(-c3ccccc3C3CC3)nc3ccoc23)cc1 [Example 173, 2-(2-Cyclopropylphenyl)-N-(4-(1-methyl-4-(trifluoromethyl)-1H-imidazol-2-yl)benzyl)furo[3,2-d]pyrimidin-4-amine] | 1 | 23.6 |
| Cc1cc(C(F)(F)F)nn1-c1ccc(CNc2nc(-c3ccccc3C3CC3)nc3ccoc23)cc1 [Example 174, 2-(2-Cyclopropylphenyl)-N-(4-(5-methyl-3-(trifluoromethyl)-1H-pyrazol-1-yl)benzyl)furo[3,2-d]pyrimidin-4-amine] | 5.1 | 43.7 |
| COc1cc(-c2nc(C(F)(F)F)cn2C)ccc1CNc1nc(-c2ccccc2C2CC2)nc2ccoc12 [Example 175, 2-(2-Cyclopropylphenyl)-N-(2-methoxy-4-(1-methyl-4-(trifluoromethyl)-1H-imidazol-2-yl)benzyl)furo[3,2-d]pyrimidin-4-amine] | 3.6 | 87.1 |
